Data: ChEMBL document CHEMBL2016447, “Cyclopropyl Carboxamides: A New Oral Antimalarial Series Derived from the Tres Cantos Anti-Malarial Set (TCAMS)” (ACS Med Chem Lett, 2011)
Values after ≈ are worked out from the molar mass of the structure shown. Blank lines part the entries; values can stand above or below the compound they belong to. Active and inactive are the calls of the source. No cut-off for these calls is given here.

How the values were obtained:
[1] = test system: Plasmodium falciparum; test: Antiplasmodial activity against Plasmodium falciparum 3D7 infected in human erythrocytes assessed as inhibition of [3H]hypoxanthine incorporation after 24 hrs by microbeta counter; assay type: functional, organism-based
[2] = test system: Liver; test: Intrinsic clearance in mouse liver microsomes assessed per gram of protein at 100 uM by HPLC analysis; assay type: ADME, Microsome
[3] = Half life in mouse liver microsomes at 100 uM by HPLC analysis; assay type: ADME, Microsome
[4] = test system: Liver microsomes; test: Intrinsic clearance in human liver microsomes assessed per gram of protein at 100 uM by HPLC analysis; assay type: ADME, Microsome
[5] = Half life in human liver microsomes at 100 uM by HPLC analysis; assay type: ADME, Microsome
[6] = test system: Plasmodium falciparum; test: Antiplasmodial activity Plasmodium falciparum 3D70087/N9 infected in NODscidIL2Rgammac-/- mouse assessed as reduction of parasitemia administered 3 days after infection measured on day 3 to 7 by flow cytometry; assay type: functional; conditions: 3D70087/N9, 72 h
[7] = Lipophilicity, log D of the compound by chromatographic hydrophobicity index assay; assay type: physicochemical
[8] = test system: Plasmodium falciparum; test: Antiplasmodial activity against Plasmodium falciparum 3D7 by parasite lactate dehydrogenase assay; assay type: functional, organism-based
[9] = target: Cytochrome P450 2C9 (Homo sapiens, UniProt P11712); test: Inhibition of CYP2C9; assay type: ADME
[10] = target: Cytochrome P450 2C19 (Homo sapiens, UniProt P33261); test: Inhibition of CYP2C19; assay type: ADME
[11] = target: Cytochrome P450 2D6 (Homo sapiens, UniProt P10635); test: Inhibition of CYP2D6; assay type: ADME
[12] = target: Cytochrome P450 3A4 (Homo sapiens, UniProt P08684); test: Inhibition of CYP3A4; assay type: ADME
[13] = Solubility of the compound in DMSO by chemiluminescent nitrogen detection assay; assay type: physicochemical
[14] = Protein binding in mouse plasma; assay type: ADME, cell-free; conditions: read-out: PPB (converted)
[15] = target: T1, Nuclear receptor subfamily 1 group I member 2 (Homo sapiens, UniProt O75469); test: Activity at PXR at 2.5 uM
T1 sequence (O75469 whole entry): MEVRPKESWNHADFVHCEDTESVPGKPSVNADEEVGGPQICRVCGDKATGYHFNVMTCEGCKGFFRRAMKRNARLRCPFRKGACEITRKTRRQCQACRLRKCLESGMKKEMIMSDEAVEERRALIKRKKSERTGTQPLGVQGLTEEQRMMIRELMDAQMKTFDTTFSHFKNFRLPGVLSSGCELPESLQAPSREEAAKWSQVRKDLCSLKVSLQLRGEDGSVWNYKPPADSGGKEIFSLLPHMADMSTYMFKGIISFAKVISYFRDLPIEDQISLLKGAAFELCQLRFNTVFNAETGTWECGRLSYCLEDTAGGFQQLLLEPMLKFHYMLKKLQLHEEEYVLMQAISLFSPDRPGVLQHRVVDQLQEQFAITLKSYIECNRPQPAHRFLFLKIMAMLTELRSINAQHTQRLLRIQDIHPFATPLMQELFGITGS

[16] = target: 3',5'-cyclic-AMP phosphodiesterase 4B (Homo sapiens) (UniProt Q07343); test: Activity of PDE4B at 0.3 uM
[17] = Cmax in CD1 mouse at 20 mg/kg, po administered with 1% methylcellulose in water by LC/MS analysis; assay type: ADME, organism-based; parameters: dose 20 mg/kg, route oral; conditions: in vivo
[18] = test system: Mus musculus; test: AUC (0 to t) in CD1 mouse at 20 mg/kg, po administered with 1% methylcellulose in water by LC/MS analysis; assay type: ADME, organism-based; parameters: dose 20 mg/kg, route oral; conditions: in vivo
[19] = Oral bioavailability in CD1 mouse at 20 mg/kg administered with 1% methylcellulose in water by LC/MS analysis; assay type: ADME, organism-based; conditions: in vivo
[20] = target: T1, Nuclear receptor subfamily 1 group I member 2; test: Activity at PXR at 1 uM
[21] = Clearance in CD1 mouse at 2 mg/kg, iv and 20 mg/kg, po by LC/MS analysis; assay type: ADME, organism-based; conditions: in vivo
[22] = Volume of distribution in CD1 mouse at 2 mg/kg, iv and 20 mg/kg, po by LC/MS analysis; assay type: ADME, organism-based; conditions: in vivo
[23] = Half life in CD1 mouse at 2 mg/kg, iv administered with 3% solutol, 7% PEG in saline by LC/MS analysis; assay type: ADME, organism-based; parameters: dose 2 mg/kg, route intravenous; conditions: in vivo
[24] = test system: Mus musculus; test: AUC (0 to t) in CD1 mouse at 2 mg/kg, iv administered with 3% solutol, 7% PEG in saline by LC/MS analysis; assay type: ADME, organism-based, Plasma; parameters: dose 2 mg/kg, route intravenous; conditions: in vivo
[25] = Protein binding in human plasma; assay type: ADME, cell-free; conditions: read-out: PPB
[26] = Clearance in CD1 mouse at 2 mg/kg, iv and 20 mg/kg, po by LC/MS analysis; conditions: in vivo
[27] = Volume of distribution in CD1 mouse at 2 mg/kg, iv and 20 mg/kg, po by LC/MS analysis; conditions: in vivo
[28] = Half life in CD1 mouse at 2 mg/kg, iv administered with 20% encapsine in water by LC/MS analysis; conditions: in vivo
[29] = test system: Mus musculus; test: AUC (0 to t) in CD1 mouse at 2 mg/kg, iv administered with 20% encapsine in water by LC/MS analysis; conditions: in vivo

Cytochrome P450 3A4, sequence (P08684 whole entry): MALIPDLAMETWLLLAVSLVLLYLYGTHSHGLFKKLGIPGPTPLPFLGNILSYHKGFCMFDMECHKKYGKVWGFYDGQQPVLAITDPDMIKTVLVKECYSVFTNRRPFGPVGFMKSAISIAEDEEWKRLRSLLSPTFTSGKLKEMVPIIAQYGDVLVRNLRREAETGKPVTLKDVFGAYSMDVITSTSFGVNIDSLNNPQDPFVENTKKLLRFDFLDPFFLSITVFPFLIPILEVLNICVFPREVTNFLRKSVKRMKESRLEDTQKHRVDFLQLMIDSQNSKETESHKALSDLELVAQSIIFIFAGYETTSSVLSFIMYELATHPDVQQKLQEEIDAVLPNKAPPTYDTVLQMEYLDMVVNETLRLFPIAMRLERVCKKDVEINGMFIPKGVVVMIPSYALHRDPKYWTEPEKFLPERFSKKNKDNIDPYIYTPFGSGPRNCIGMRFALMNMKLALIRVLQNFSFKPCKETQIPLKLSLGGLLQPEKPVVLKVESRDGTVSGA
Cytochrome P450 2C19, sequence (P33261 whole entry): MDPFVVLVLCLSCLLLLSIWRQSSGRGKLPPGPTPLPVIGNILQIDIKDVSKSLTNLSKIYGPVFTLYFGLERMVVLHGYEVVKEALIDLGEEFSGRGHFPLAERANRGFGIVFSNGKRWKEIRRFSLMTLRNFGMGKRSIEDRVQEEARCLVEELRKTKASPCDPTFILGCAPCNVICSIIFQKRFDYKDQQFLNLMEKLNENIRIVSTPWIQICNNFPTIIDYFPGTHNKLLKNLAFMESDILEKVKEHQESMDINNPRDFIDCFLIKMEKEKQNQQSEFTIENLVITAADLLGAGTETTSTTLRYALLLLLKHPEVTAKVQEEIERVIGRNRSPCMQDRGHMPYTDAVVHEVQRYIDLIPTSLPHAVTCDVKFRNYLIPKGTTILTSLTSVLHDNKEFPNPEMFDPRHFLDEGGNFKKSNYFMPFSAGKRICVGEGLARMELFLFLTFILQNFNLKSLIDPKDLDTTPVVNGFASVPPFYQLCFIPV
Cytochrome P450 2C9, sequence (P11712 whole entry): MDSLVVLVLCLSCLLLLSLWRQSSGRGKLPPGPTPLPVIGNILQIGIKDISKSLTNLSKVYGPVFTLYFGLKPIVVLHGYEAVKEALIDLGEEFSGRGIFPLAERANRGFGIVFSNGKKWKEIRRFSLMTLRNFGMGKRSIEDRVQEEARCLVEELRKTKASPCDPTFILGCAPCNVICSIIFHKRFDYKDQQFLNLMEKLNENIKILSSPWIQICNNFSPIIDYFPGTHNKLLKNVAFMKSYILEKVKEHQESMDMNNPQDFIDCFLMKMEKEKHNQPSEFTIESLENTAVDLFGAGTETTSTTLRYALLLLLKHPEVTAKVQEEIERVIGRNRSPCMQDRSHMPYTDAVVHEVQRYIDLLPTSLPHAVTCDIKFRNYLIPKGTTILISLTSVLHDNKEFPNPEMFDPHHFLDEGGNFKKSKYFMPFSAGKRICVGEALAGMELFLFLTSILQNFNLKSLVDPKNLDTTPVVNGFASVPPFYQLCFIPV
Cytochrome P450 2D6, sequence (P10635 whole entry): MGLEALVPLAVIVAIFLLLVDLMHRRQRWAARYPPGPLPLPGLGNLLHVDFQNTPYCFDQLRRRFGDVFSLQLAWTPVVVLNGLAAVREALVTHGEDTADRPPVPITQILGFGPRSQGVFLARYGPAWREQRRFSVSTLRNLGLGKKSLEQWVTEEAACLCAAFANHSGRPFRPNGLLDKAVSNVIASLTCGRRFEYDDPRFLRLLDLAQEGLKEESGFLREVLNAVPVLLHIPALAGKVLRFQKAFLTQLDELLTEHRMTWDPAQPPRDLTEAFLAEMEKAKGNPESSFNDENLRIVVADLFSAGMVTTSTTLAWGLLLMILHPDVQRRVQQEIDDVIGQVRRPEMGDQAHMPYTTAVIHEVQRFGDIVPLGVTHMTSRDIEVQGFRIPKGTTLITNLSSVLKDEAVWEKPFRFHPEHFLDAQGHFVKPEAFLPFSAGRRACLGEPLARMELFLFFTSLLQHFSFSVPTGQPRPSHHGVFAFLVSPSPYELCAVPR
3',5'-cyclic-AMP phosphodiesterase 4B (Homo sapiens), sequence (Q07343 whole entry): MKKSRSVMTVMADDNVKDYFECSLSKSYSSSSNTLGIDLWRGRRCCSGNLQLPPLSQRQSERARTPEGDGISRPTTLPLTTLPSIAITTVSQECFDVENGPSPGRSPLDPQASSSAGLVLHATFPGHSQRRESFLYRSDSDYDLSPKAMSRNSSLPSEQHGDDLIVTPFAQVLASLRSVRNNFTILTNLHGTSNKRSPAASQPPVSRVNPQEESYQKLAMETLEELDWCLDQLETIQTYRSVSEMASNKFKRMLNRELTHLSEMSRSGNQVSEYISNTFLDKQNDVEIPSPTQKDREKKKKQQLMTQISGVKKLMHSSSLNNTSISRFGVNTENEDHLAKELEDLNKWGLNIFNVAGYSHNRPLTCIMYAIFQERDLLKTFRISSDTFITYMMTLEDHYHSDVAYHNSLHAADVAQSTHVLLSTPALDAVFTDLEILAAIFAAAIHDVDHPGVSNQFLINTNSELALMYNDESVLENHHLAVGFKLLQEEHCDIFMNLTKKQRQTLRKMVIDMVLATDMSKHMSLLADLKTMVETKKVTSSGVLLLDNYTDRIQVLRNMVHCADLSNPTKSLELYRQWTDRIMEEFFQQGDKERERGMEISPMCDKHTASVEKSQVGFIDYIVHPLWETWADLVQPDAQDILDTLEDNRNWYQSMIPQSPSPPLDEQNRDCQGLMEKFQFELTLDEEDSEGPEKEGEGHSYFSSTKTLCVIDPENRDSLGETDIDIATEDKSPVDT

SMILES: CCN(CC)CCCC(C)Nc1ccnc2cc(Cl)ccc12 (configuration not stated) [CHLOROQUINE]
- ED50 [6]: 2 mg/kg

SMILES: CC(Oc1ccc(Cl)cc1)C(=O)Nc1cc(C(F)(F)F)ccc1-n1cncn1 (racemic)
- IC50 [1]: 394 nM
- CLint [2]: 4.1 mL/min/g
- half-life at 100 µM [3]: 13.6 min
- CLint [4]: 3.3 mL/min/g
- half-life at 100 µM [5]: 21.8 min
- chromatographic logD [7]: 3.84

SMILES: Cc1cc(C)n2nc(C(=O)Nc3cc(C(F)(F)F)ccc3N3CCOCC3)nc2n1
- IC50 [8]: 11 nM
- IC50 [1]: > 5000 nM

SMILES: O=C(Nc1cc(Cl)ccc1-n1cncn1)C1(c2ccccc2)CC1
- IC50 [1]: 1700 nM

SMILES: Cc1ccnc2nc(C(=O)Nc3cc(C(F)(F)F)ccc3N3CCCCC3)nn12
- IC50 [8]: 73 nM
- IC50 [1]: 3970 nM

SMILES: CC(Oc1ccc(Cl)cc1)C(=O)Nc1cc(C(F)(F)F)ccc1N1CCOCC1 (racemic)
- IC50 [1]: 439 nM
- chromatographic logD [7]: 4.56

SMILES: CC(Oc1cccc(C(F)(F)F)c1)C(=O)Nc1cc(C(F)(F)F)ccc1-n1cncn1 (racemic)
- IC50 [1]: 285 nM

Now from value to compound, other results behind:

- CLint [2]: 5.3 mL/min/g
- half-life at 100 µM [3]: 12 min
- CLint [4]: 2.9 mL/min/g
- half-life at 100 µM [5]: 24.7 min
SMILES: CC(Oc1ccccc1)C(=O)Nc1cc(C(F)(F)F)ccc1-n1cncn1 (racemic)
- IC50 [1]: 897 nM

- INH [9]: 6.3 µM
- INH [10]: > 10 µM
- INH [11]: > 10 µM
- INH [12]: > 10 µM
- solubility [13]: 9 µM (≈ 3.96 µg/mL)
- fraction unbound [14]: 0.006
- Activity [15]: Active
- Activity [16]: Active
- Cmax [17]: 1090 ng/mL
- AUCt [18]: 13.6 µg/h/mL
- bioavailability [19]: 55%
- Activity [20]: Active
- clearance [21]: 14.3 mL/min/kg
- Vd [22]: 11.9 L/kg
- half-life [23]: 612 min
- AUCt [24]: 2.23 µg/h/mL
SMILES: O=C(Nc1cc(C(F)(F)F)ccc1-n1cncn1)C1(c2cccc(C(F)(F)F)c2)CC1
- ED50 [6]: 12 mg/kg
- ED90 [6]: 20 mg/kg

- CLint [2]: 7.9 mL/min/g
- half-life at 100 µM [3]: 6.2 min
- CLint [4]: 1.2 mL/min/g
- half-life at 100 µM [5]: > 30 min
SMILES: CC(Oc1cccc(Cl)c1)C(=O)Nc1cc(C(F)(F)F)ccc1-n1cncn1 (racemic)
- IC50 [1]: 327 nM

- INH [9]: 7.9 µM
- INH [10]: > 10 µM
- INH [11]: > 10 µM
- INH [12]: > 10 µM
- solubility [13]: 100 µM (≈ 37.2 µg/mL)
- fraction unbound [14]: 0.01
- fraction unbound [25]: 0.01
- Activity [15]: Active
- Cmax [17]: 2340 ng/mL
- AUCt [18]: 9.71 µg/h/mL
- bioavailability [19]: 81%
- chromatographic logD [7]: 3.83
- clearance [26]: 29.7 mL/min/kg
- Vd [27]: 6.47 L/kg
- half-life [28]: 166 min
- AUCt [29]: 0.596 µg/h/mL
SMILES: O=C(Nc1cc(C(F)(F)F)ccc1-n1cncn1)C1(c2ccccc2)CC1
- IC50 [1]: 66 nM
- ED50 [6]: > 50 mg/kg
- ED90 [6]: > 50 mg/kg

- CLint [2]: 5.6 mL/min/g
- half-life at 100 µM [3]: 11.7 min
- CLint [4]: 1.6 mL/min/g
- half-life at 100 µM [5]: > 30 min
SMILES: CC(Oc1ccccc1Cl)C(=O)Nc1cc(C(F)(F)F)ccc1-n1cncn1 (racemic)
- IC50 [1]: 190 nM
